The record followed here is ChEMBL document CHEMBL1201862, “PubChem BioAssay data set” (2004).

Assay in all cases: inhibition of tumour cell growth, NCI panel, 48 h
The test system of test [1] is A498.
The subject of test [2] is A549.
Test [3] relates to CAKI-1.
Test [4] relates to DU-145.
Test [5] has as its system HCT-15.
Test [6] deals with HT-29.
Test [7] has as its system KM12.
Test [8] relates to LOX IMVI.
The test system of test [9] is MDA-MB-231.
Test [10] deals with Malme-3M.
The test system of test [11] is NCI/ADR-RES.
The subject of test [12] is PC-3.
The test system of test [13] is SK-MEL-28.
Test [14] relates to SK-OV-3.
For test [15], the system named is SNB-19.
Test [16] deals with SNB-75.
In test [17] the test system is SR.
Test [18] has as its system T47D.
Test [19] relates to TK-10.
The test system of test [20] is UO-31.

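96-well plates; 48 h exposure; 5 concentrations. Endpoints by linear interpolation between flanking doses. Not reached: highest tested concentration assigned. GI50 = concentration required for 50% inhibition of growth.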 The source made the active and inactive calls. Rule as the data show it: active = GI50 up to about 1.1 µM and inactive = higher. Where only a bound is given, the exact number is not on record here.

As to `Cc1ccc(/C(C#N)=C/c2cccc([N+](=O)[O-])c2)cc1`, the GI50 in test [1] was 59.4 µM (inactive); in [2] it was > 100 µM (inactive); in test [3], > 100 µM (inactive); in test [4], 98.6 µM (inactive); in test [5], over 100 µM; in test [6] it was > 100 µM (inactive). Further, the GI50 in test [7] is > 100 µM (inactive); in [8] it was > 100 µM (inactive); in test [9], 19.2 µM (inactive); in test [10], > 100 µM (inactive); in test [11], > 100 µM (inactive); in test [12] it was > 100 µM (inactive). The GI50 in [13] is > 100 µM (inactive); in [14], 61.9 µM (inactive); in [15], 43.8 µM (inactive); in test [16], 19.5 µM (inactive); in [17], > 100 µM (inactive); in [18] it was > 100 µM (inactive). For the same compound, the GI50 in [19] is 92.5 µM (inactive); in [20] it was 45.3 µM (inactive).

`COC(=O)c1ccc(CCc2cc(O)ccc2O)cc1`: the GI50 is 37.6 µM (inactive) in test [1]; 26.8 µM (inactive) in [2]; 4.06 µM (inactive) in test [3]; 32.4 µM (inactive) in test [4]; 8.79 µM in test [5]; 28.4 µM (inactive) in test [6]. The GI50 is 5.52 µM (inactive) in [7]; 6.12 µM (inactive) in test [8]; 10.1 µM (inactive) in test [9]; 8.75 µM (inactive) in [10]; 12.8 µM (inactive) in [11]; 4.3 µM (inactive) in [12]. Moreover, the GI50 in [13] is 16.6 µM (inactive); in [14], 38 µM (inactive); in test [15] it was 12 µM (inactive); in test [16] it was 3.77 µM (inactive); in test [17], 2.44 µM (inactive); in test [18], 2.6 µM (inactive). Besides, the GI50 is 22.4 µM (inactive) in [19] and 2.02 µM (inactive) in test [20].

In the case of `CCOC(=O)C1=C(C)N(c2ccc(Cl)cc2)C2(O)C=CC(=O)C3C(=O)N(c4ccccc4)C(=O)C132` (stereo not given), the GI50 in [1] is 1.56 µM (inactive); in test [2], 2.83 µM (inactive); in [3], 1.87 µM (inactive); in test [4], 1.87 µM (inactive); in [5], 1.82 µM; in [6] it was 1.82 µM (inactive). Further, the GI50 in [7] is 1.69 µM (inactive); in test [8] it was 1.36 µM (inactive); in test [9], 2.09 µM (inactive); in [10], 1.66 µM (inactive); in test [11], 2.36 µM (inactive); in test [12], 1.5 µM (inactive). Besides, the GI50 was 1.51 µM (inactive) in test [13]; 2.4 µM (inactive) in test [14]; 2.18 µM (inactive) in [15]; 1.77 µM (inactive) in test [16]; 0.292 µM (active) in test [17]; 2.3 µM (inactive) in test [18]. Also, the values for the GI50 in test [19] and in test [20] were 1.8 µM (inactive) and 1.6 µM (inactive), respectively.

In the case of `CCCCSc1n/c(=C\c2ccc(N(C)C)cc2)c2nnnn12`, the GI50 in [1] was > 100 µM (inactive); in test [2], > 100 µM (inactive); in test [3], > 100 µM (inactive); in [4] it was > 100 µM (inactive); in test [5], over 100 µM; in test [6] it was > 100 µM (inactive). In addition, the GI50 in test [7], in test [8], in test [9], in test [10], in [11] and in test [12] was > 100 µM (inactive) throughout. Moreover, the GI50 in test [13], in [14], in test [15], in test [16], in test [17] and in test [18] was > 100 µM (inactive) throughout. The GI50 in test [19] was > 100 µM (inactive); in test [20] it was 73.8 µM (inactive).

In the case of `Nc1n[nH]c(N)n1` [GUANAZOLE], the GI50 in test [1] was 5470 µM (inactive); in [2], 4420 µM (inactive); in test [3], 3550 µM (inactive); in [4] it was 5130 µM (inactive); in [5], 7670 µM; in [6], 5060 µM (inactive). Moreover, the GI50 in [7] is 8890 µM (inactive); in test [8], 2960 µM (inactive); in test [9], > 10000 µM (inactive); in [10], 9100 µM (inactive); in test [11] it was 2580 µM (inactive); in test [12], 8510 µM (inactive). For the same compound, the GI50 was > 6150 µM (inactive) in test [13]; 3210 µM (inactive) in test [14]; 9980 µM (inactive) in test [15]; 9250 µM (inactive) in test [16]; 3300 µM (inactive) in test [17]; > 9160 µM (inactive) in test [18]. The figures for the GI50 in test [19] and in test [20] were > 10000 µM (inactive) and 7030 µM (inactive), respectively.
